According to PMC6644700 (ACS chemical biology, 2019):

Biological target: T1, Nicotinamide N-methyltransferase (NNMT) (Homo sapiens, UniProt P40261, C165A)
T1 sequence (P40261 1-264 C165A): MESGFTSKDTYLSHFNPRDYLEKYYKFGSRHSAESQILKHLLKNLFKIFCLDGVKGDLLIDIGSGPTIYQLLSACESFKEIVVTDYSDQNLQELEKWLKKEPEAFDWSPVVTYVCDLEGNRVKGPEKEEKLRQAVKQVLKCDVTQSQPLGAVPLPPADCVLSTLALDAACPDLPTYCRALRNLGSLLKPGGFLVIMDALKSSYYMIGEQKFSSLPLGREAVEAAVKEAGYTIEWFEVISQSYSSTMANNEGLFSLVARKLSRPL
Assay: suicide inactivation of purified mutant with SAM
Type: biochemical

Row | Structure (SMILES) | suicide inactivation of purified mutant with SAM
1 | Clc1ccncc1 [compound 2, 4-chloropyridine] | By contrast, the C165A mutant remained sensitive.
2 | NC(=O)c1cnccc1Cl [compound 3, 4-chloronicotinamide] | By contrast, the C165A mutant remained sensitive.
